Data taken from US20160137639A1, “TRIAZOLE-ISOXAZOLE COMPOUND AND MEDICAL USE THEREOF” (JAPAN TOBACCO INC., priority 2012, published 2016).
Where two headings read alike, the source gives them in different places.

Key:
mouse RORγ = target: T1, mouse RORγ (Mus musculus, UniProt P51450); experiment: Luciferase reporter gene assay of inhibitory effect against RORγ transcriptional activity (GAL4-mRORγ plasmid in CHO cells); type: cell-based
T1 construct: mouse, NM_011281.2 and from Ile251 to Lys516; expressed in transfected cells; host or cells: CHO cells (transient co-transfection with pG5-Luc reporter)
T1 sequence (P51450 251-516): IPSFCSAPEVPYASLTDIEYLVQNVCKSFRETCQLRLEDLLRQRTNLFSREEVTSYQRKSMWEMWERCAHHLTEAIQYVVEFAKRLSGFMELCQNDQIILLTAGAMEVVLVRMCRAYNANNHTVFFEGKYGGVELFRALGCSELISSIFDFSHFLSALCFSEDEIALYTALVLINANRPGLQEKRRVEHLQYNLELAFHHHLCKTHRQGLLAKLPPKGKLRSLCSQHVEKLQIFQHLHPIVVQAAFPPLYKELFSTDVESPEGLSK
Summary of the method: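 Readout is intracellular luciferase after 2-day compound exposure (8 concentrations, 0.1% DMSO) in CHO cells expressing GAL4 fused to mouse RORγ LBD residues Ile251–Lys516 plus pG5-Luc reporter. EC50 fitted from %-of-control; points showing resazurin-detected cytotoxicity dropped.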

human RORγ = target: T2, human RORγ (Homo sapiens, UniProt P51449); experiment: Luciferase reporter gene assay of inhibitory effect against RORγ transcriptional activity (GAL4-hRORγ plasmid in CHO cells); type: cell-based
T2 construct: human, NM_005060.3 and from Ser253 to Lys518; expressed in transfected cells; host or cells: CHO cells (transient co-transfection with pG5-Luc reporter)
T2 sequence (P51449 253-518): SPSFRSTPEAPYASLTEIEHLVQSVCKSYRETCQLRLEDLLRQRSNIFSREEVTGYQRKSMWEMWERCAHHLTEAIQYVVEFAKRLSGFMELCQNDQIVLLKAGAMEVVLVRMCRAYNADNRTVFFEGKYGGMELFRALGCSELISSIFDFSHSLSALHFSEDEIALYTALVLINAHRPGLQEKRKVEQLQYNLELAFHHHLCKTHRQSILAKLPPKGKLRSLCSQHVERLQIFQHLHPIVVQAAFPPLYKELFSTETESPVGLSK

SMILES | EC50 (mouse RORγ; read-out: LUC EC50 mRORg) | EC50 (human RORγ; read-out: LUC EC50 hRORg) | EC50 (mouse RORγ; read-out: LUC EC50 (μM) mRORg) | EC50 (human RORγ; read-out: LUC EC50 (μM) hRORg)
COc1cc(C)ccc1CNC(=O)CCc1noc(C(F)(F)c2cc(C(C)(C)C)no2)c1C1CC1 [Example F-741] | < 3 µM | < 3 µM | – | –
Cc1ccc(NC(=O)[C@H]2CN(C)CC[C@@H]2c2nnc([C@H]3C[C@@H](CC(C)C)C3)n2C2CC2)c(C)c1 (racemic) [Example F-583] | < 3 µM | < 3 µM | – | –
Cc1ccc(NC(=O)CCc2nnc(-c3ccc(OC(C)C)cc3)n2C2CC2)c(C)c1 [Example F-441] | – | – | < 3 µM | > 3 µM
Cc1ccc(NC(=O)[C@H]2C[C@H](O)C[C@@H]2c2nnc([C@H]3C[C@@H](CC(C)C)C3)n2C2CC2)c(C)c1 (racemic) [Example F-421] | – | – | < 3 µM | < 3 µM
CC(=O)N1C[C@@H](C(=O)Nc2ccc(C)cc2C)[C@H](c2nnc(-c3cc(CC(C)C)no3)n2C2CC2)C1 [Example F-507] | > 3 µM | > 3 µM | – | –
CCn1c(CCC(=O)Nc2cc(Cl)cc(Cl)c2)nnc1C1Cc2ccccc2C1 [Example F-29] | – | – | > 3 µM | > 3 µM
CC(C)C[C@H]1C[C@@H](c2nnc([C@@H](CCO)CC(=O)Nc3ccc(C(F)(F)F)cc3C(F)(F)F)n2C2CC2)C1 [Example F-524] | < 3 µM | < 3 µM | – | –
Cc1ccncc1NC(=O)CCc1nnc(CCC(C)C)n1C1CC1 [Example F-90] | – | – | > 3 µM | > 3 µM
Cc1ccc(NC(=O)C[C@@H](c2nnc([C@H]3C[C@@H](CC(C)C)C3)n2C2CC2)N(C)CCO)c(C)c1 [Example F-544] | < 3 µM | < 3 µM | – | –
Cc1ccc(NC(=O)C[C@H](CCC(=O)O)c2nnc([C@H]3C[C@@H](CC(C)(C)C(C)C)C3)n2C2CC2(F)F)c(Cl)c1 (mixture of isomers) [Example F-714] | < 3 µM | < 3 µM | – | –
Cc1ccc(NC(=O)[C@@H]2CC(C)(O)C[C@H]2c2nnc([C@H]3C[C@@H](CC(C)C)C3)n2C2CC2)c(C)c1 (single isomer, unassigned) [Example F-564] | < 3 µM | < 3 µM | – | –
Cc1ccc(NC(=O)C[C@H](CC(O)C(F)(F)F)c2nnc([C@H]3C[C@@H](CC(C)C)C3)n2C2CC2)c(C)c1 (single isomer, unassigned) [Example F-622] | < 3 µM | < 3 µM | – | –
CC(=O)N1C[C@H](C(=O)Nc2ccc(C)cc2C)[C@@H](c2nnc(C3CC3CC(C)C)n2C2CC2)C1 (mixture of isomers) [Example F-341] | – | – | < 3 µM | < 3 µM
Cc1ccc(NC(=O)C[C@H](CCCO)c2noc(-c3cc(CC(C)C)[nH]n3)c2C2CC2)c(F)c1 [Example F-702] | < 3 µM | < 3 µM | – | –
Cc1ccc(NC(=O)C[C@H](OCC(C)C)c2nnc([C@H]3C[C@@H](CC(C)C)C3)n2C2CC2)c(C)c1 [Example F-582] | < 3 µM | < 3 µM | – | –
Cc1ccc(NC(=O)C[C@H](CC(C)C)c2nnc(-c3cc(CC(C)C)on3)n2C2CC2)c(C)c1 [Example F-586] | < 3 µM | < 3 µM | – | –
Cc1ccccc1CNC(=O)CCc1nnc(CCC(C)C)n1C1CC1 [Example F-59] | – | – | > 3 µM | > 3 µM
Cc1ccc(NC(=O)CC(c2nnc([C@H]3C[C@@H](CC(C)C)C3)n2C2CC2)C2CN(C(=O)OCc3ccccc3)C2)c(C)c1 (mixture of isomers) [Example F-459] | – | – | < 3 µM | < 3 µM
Cc1ccc(NC(=O)CC(Cc2nccs2)c2nnc([C@H]3C[C@@H](CC(C)C)C3)n2C2CC2)c(C)c1 (mixture of isomers) [Example F-439] | – | – | < 3 µM | < 3 µM
Cc1ccc(NC(=O)C[C@H](CCC(=O)O)c2noc(-c3cc(CCC(C)(C)C)on3)c2C2CC2)c(F)c1 [Example E-31] | – | – | < 3 µM | < 3 µM
CCC(C)(C)CCc1nnc([C@H]2CN(C(C)=O)C[C@@H]2C(=O)Nc2ccc(C)cc2C)n1C1CC1 (racemic) [Example F-299] | – | – | < 3 µM | < 3 µM
Cc1ccc(NC(=O)C[C@H](CCC(=O)O)c2nnn([C@H]3C[C@@H](CC(C)(C)C(C)C)C3)c2C(F)(F)F)c(F)c1 [Example F-707] | < 3 µM | < 3 µM | – | –
Cc1c(F)cccc1CNC(=O)CCc1nnc(CCC(C)C)n1C1CC1 [Example F-126] | – | – | > 3 µM | > 3 µM
Cc1ccc(NC(=O)C[C@H](C[C@@H](C)O)c2nnc([C@H]3C[C@@H](CC(C)C)C3)n2C2CC2)c(C)c1 [Example F-560] | < 3 µM | < 3 µM | – | –
Cc1ccc(NC(=O)CC(c2nnc([C@H]3C[C@@H](CC(C)C)C3)n2C2CC2)C2CN(C)C2)c(C)c1 (mixture of isomers) [Example F-469] | – | – | > 3 µM | > 3 µM

SMILES | EC50 (mouse RORγ; read-out: LUC EC50 mRORg) | EC50 (human RORγ; read-out: LUC EC50 hRORg) | EC50 (mouse RORγ; read-out: LUC EC50 (μM) mRORg) | EC50 (human RORγ; read-out: LUC EC50 (μM) hRORg)
CC(C)CCc1nnc(CCC(=O)N[C@H](C)c2ccccc2)n1C1CC1 [Example F-63] | – | – | > 3 µM | > 3 µM
COc1cc(C)ccc1CNC(=O)CCc1nnc(CCC2CCC(F)(F)CC2)n1C1CC1 [Example F-257] | – | – | < 3 µM | < 3 µM
Cc1ccc(NC(=O)CC(c2nnc([C@H]3C[C@@H](CC(C)C)C3)n2C2CC2)C(C)O)c(C)c1 (mixture of isomers) [Example F-529] | < 3 µM | < 3 µM | – | –
Cc1c(Cl)cccc1NC(=O)CCc1nnc(CCN2CCCCC2=O)n1C1CC1 [Example F-187] | – | – | > 3 µM | > 3 µM
Cc1ccc(NC(=O)CC(CCO)c2noc(C3CC(CC(C)C)C3)c2C2CC2)c(C)c1 (stereo not shown) [Example F-580] | < 3 µM | < 3 µM | – | –
Cc1c(Cl)cccc1NC(=O)CC(CC(=O)O)c1nnc(CCCC(C)C)n1C1CC1 (racemic) [Example F-213] | – | – | > 3 µM | > 3 µM
Cc1ccc(NC(=O)CCc2nnc(CCC(C)(C)C)n2C2CC2)c(C)c1 [Example F-69] | – | – | < 3 µM | > 3 µM
Cc1ccc(NC(=O)CCc2nnc(C3CC4(CCCC4)C3)n2C2CC2)c(C)c1 [Example F-420] | – | – | < 3 µM | < 3 µM
Cc1ccc(NC(=O)CCc2noc(C3(O)CC(CC(C)(C)C)C3)c2C2CC2)c(Cl)c1 (mixture of isomers) [Example F-732] | < 3 µM | < 3 µM | – | –
Cc1c(Cl)cccc1NC(=O)CCc1nnc(CCC(=O)N(C)C)n1C1CC1 [Example F-184] | – | – | > 3 µM | > 3 µM
Cc1ccc(NC(=O)CC(CC(C)C)c2nnc(CCCC(C)(C)C)n2C2CC2)c(C)c1 (racemic) [Example F-438] | – | – | < 3 µM | < 3 µM
Cc1ccc(NC(=O)C[C@H](CCC(=O)O)c2nnn(-c3ccc(CCC4CCCC4)cc3)c2C2CC2)c(Cl)c1 [Example F-701] | < 3 µM | < 3 µM | – | –
Cc1c(Cl)cccc1NC(=O)CC(CCN1C(=O)c2ccccc2C1=O)c1nnc(CCCC(C)C)n1C1CC1 (racemic) [Example F-224] | – | – | < 3 µM | < 3 µM
CC(C)(C)CCc1cc(-c2onc([C@@H](CCC(=O)O)CC(=O)Nc3ccc(F)cc3Cl)c2C2CC2)no1 [Example E-34] | – | – | < 3 µM | < 3 µM
CCCCc1nnc(CCC(=O)Nc2cccc(Cl)c2C)n1C1CC1 [Example F-105] | – | – | > 3 µM | > 3 µM
Cc1ccc(NC(=O)C[C@H](CCC(=O)O)c2nnc([C@H]3C[C@@H](CC(C)(C)C(C)C)C3)n2C2CC2)c(Cl)c1 [Example F-708] | < 3 µM | < 3 µM | – | –
CCC1(CC)CC(c2nnc(CCC(=O)Nc3ccc(C)cc3C)n2C2CC2)C1 [Example F-451] | – | – | < 3 µM | < 3 µM
Cc1ccc(NC(=O)C[C@@H](c2nnc([C@H]3C[C@@H](CC(C)C)C3)n2C2CC2)N(C)C(=O)C(C)C)c(C)c1 [Example F-530] | < 3 µM | < 3 µM | – | –
CC(=O)N1C[C@H](C(=O)Nc2ccc(C)cc2C)[C@@H](c2nnc(-c3cc(CC(C)(C)C)on3)n2C2CC2)C1 [Example F-631] | < 3 µM | < 3 µM | – | –
Cc1ccc(NC(=O)[C@H]2CC(=O)N(C)[C@@H]2c2nnc(CCCC(C)(C)C)n2C2CC2)c(C)c1 [Example F-388] | – | – | < 3 µM | < 3 µM
COc1cc(C)ccc1CNC(=O)CCc1nnc(CC[C@H]2CC[C@H](C(F)(F)F)CC2)n1C1CC1 [Example F-251] | – | – | < 3 µM | < 3 µM
Cc1ccc(NC(=O)C[C@H](C[C@H](O)CO)c2nnc(CCCC(C)C)n2C2CC2)c(C)c1 [Example F-343] | – | – | < 3 µM | < 3 µM
Cc1ccc(NC(=O)[C@@H]2CC(F)(F)C[C@H]2c2nnc([C@H]3C[C@@H](CC(C)C)C3)n2C2CC2)c(C)c1 [Example F-572] | < 3 µM | < 3 µM | – | –
Cc1cc(C#N)ccc1NC(=O)CCc1nnc(CCC(C)C)n1C1CC1 [Example F-161] | – | – | > 3 µM | > 3 µM
COc1c(CNC(=O)CCc2nnc(CCC(C)C)n2C2CC2)ccc(C)c1C [Example F-262] | – | – | > 3 µM | > 3 µM
